One data set concerns the target T1, caspase 4 (Homo sapiens, UniProt P49662).
T1 construct: purchased Reaction Biology Corporation
T1 sequence (P49662 81-270 limits assumed): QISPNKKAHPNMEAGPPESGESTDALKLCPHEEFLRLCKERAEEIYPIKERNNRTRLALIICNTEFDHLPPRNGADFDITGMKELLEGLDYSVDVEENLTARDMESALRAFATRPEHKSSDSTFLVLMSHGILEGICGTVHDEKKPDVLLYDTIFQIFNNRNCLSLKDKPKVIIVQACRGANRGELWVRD
T1 sequence (P49662 290-377 limits assumed): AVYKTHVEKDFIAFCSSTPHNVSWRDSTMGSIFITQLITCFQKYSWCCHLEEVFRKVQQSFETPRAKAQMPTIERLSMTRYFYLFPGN
As to the kind of experiment: commercial panel of caspases (Reaction Biology Corporation), caspase 4. The format is biochemical. As to conditions: read-out: IC50 versus caspase 4. The text has this:
(§1) Having established that the compounds (3), (4) and (16) are potent inhibitors of caspase 1, the selectivity of these agents was examined. […] Wannamaker, W.; Davies, R.; Namchuk, M.; Pollard, J.; Ford, P.; Ku, G.; Decker, C.; Charifson, P.; Weber, P.; Germann, U. A.; Kuida, K.; Randle, J. C. R. J. Pharmacol. Exp. Ther. 2007, 321, 509-516. […] VRT-043198 (2b), NCGC00185682 (3), NCGC00183434 (4) and NCGC00183681 (16) were entered within a commercial panel of caspases offered by Reaction Biology Corporation. […] A particularly interesting aspect of these molecules was the high selectivity for caspase 1. […] All other activities were about the 1 μM threshold.

Another data set concerns the target T2, caspase 6 (Homo sapiens, UniProt P55212).
T2 sequence (P55212 24-179 limits assumed): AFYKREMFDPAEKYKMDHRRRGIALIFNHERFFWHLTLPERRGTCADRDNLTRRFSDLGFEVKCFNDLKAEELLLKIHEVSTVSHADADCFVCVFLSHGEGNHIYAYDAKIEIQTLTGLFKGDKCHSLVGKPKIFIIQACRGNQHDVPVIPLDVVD
T2 sequence (P55212 194-293 limits assumed): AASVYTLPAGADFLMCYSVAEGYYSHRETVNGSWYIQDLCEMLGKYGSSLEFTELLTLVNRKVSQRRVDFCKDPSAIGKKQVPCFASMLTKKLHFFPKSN
The note with it: reported by Randle and coworkers (Wannamaker et al. 2007); read-out: Ki versus caspase 6; cited from earlier work.

Data set [1] addresses T3, caspase 1 (Homo sapiens, UniProt P29466).
T3 sequence (P29466 120-297 limits assumed): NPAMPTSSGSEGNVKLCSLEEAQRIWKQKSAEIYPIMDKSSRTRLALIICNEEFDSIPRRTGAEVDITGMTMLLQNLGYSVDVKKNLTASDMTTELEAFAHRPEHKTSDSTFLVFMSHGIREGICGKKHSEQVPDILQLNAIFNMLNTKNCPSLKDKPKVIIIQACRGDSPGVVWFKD
T3 sequence (P29466 317-404 limits assumed): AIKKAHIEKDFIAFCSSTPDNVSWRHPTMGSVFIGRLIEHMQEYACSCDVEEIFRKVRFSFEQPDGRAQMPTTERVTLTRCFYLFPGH
As to the kind of experiment: commercial panel of caspases (Reaction Biology Corporation), caspase 1. The class given is biochemical. As to conditions: read-out: IC50 versus caspase 1.
Description: as §1

The target in data set [2] is T4, caspase 8 (Homo sapiens, UniProt Q14790). As to the kind of experiment: commercial panel of caspases (Reaction Biology Corporation), caspase 8. The format is biochemical. The note with it: read-out: IC50 versus caspase 8.
T4 sequence (Q14790 217-374 limits assumed): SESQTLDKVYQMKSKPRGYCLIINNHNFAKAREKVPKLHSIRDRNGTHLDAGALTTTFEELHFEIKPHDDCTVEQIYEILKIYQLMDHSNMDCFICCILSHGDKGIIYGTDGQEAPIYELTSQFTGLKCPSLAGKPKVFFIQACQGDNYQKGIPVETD
T4 sequence (Q14790 385-479 limits assumed): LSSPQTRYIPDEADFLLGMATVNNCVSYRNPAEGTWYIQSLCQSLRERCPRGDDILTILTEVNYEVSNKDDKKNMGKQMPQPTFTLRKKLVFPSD
Description: as §1

A short description of data set [3]: plasma protein binding, human. The format is in vitro ADME. The note with it: relative to VX-765 (1) and NCGC00185682 (3). How it is done:
(§2) Given the aqueous stability of these new agents, selected ADME properties for chosen compounds were also examined. VX-765 (1), VRT-043198 (2b), NCGC00185682 (3), NCGC00183434 (4) and NCGC00183681 (16) were evaluated for a profile of bi-directional Caco-2 permeability, plasma protein binding (both human and rat) and microsomal stability (both human and rat) studies (FIG. 9, Table 2). […] The clearance rates (Clint) and t ½ for VRT-043198 (2b), NCGC00185682 (3), NCGC00183434 (4) and NCGC00183681 (16) were all moderate.

The target in data set [4] is T3, caspase 1. Description: caspase 1 inhibition assay with caged fluorescent peptide substrate (Ac-LEHD-AMC). The format is biochemical. The note with it: 2 nM enzyme, 20 minutes at room temperature, fluorescence detection, read-out: IC50 versus caspase 1. How it is done: Each agent's inhibitory capacity versus caspase 1 was evaluated. A well established protocol was utilized whereby caspase 1 activity is measured utilizing 2 nM enzyme in the presence and absence of compound and a caged fluorescent peptide substrate (Ac-LEHD-AMC). Wannamaker et al, Journal of Pharmacology and Experimental Therapeutics, 2007, 321, 509-516. The compounds were examined across a titration series (0.325 nM→57.5 μM) and data was recorded via fluorescence detection following an incubation period of 20 minutes at room temperature.

The target in the next data set is T5, caspase 9 (Homo sapiens, UniProt P55211).
T5 construct: purchased Reaction Biology Corporation
T5 sequence (P55211 1-315 limits assumed): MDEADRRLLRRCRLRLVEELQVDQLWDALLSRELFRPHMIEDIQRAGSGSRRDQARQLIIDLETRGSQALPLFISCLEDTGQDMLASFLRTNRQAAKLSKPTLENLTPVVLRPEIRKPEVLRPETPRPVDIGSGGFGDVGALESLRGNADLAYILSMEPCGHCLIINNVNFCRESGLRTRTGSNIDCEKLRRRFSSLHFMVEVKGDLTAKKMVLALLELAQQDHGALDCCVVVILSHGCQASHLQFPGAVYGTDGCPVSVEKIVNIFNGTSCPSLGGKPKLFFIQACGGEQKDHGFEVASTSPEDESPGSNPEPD
T5 sequence (P55211 331-416 limits assumed): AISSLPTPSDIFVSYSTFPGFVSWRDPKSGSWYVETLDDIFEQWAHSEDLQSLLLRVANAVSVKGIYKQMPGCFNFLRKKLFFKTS
As to the kind of experiment: commercial panel of caspases (Reaction Biology Corporation), caspase 9. The class given is biochemical. The note with it: read-out: IC50 versus caspase 9.
Description: as §1

In data set [5] the target is T4, caspase 8. The note with it: reported by Randle and coworkers (Wannamaker et al. 2007); read-out: Ki versus caspase 8; cited from earlier work.
Data set [6] is described as follows: aqueous degradation study by LCMS over 96 hours. The class given is physicochemical. The note with it: over 96 hours. As to the method:
In order to evaluate the agent's stability profile, VX-765 (1), VRT-043198 (2b), NCGC00185682 (3), NCGC00183434 (4) and NCGC00183681 (16) were examined within an aqueous degradation study at neutral (pH 7) acidic (pH 2) and basic (pH 8) conditions. The study was conducted by monitoring the degradation of each agent by LCMS analysis at various time points over 96 hours (FIG. 8). […] This degradation was amplified in both basic and acidic conditions. Conversely, the active agent VRT-043198 (2b) was very stable in both water and acidic conditions and its degradation at pH 8 was moderate.

The nature of data set [7]: plasma protein binding, rat. The format is in vitro ADME. As to conditions: relative to VX-765 (1) and NCGC00185682 (3). As to the method:
as §2

The structures appear in SMILES notation.

The term IC50 denotes the point on the concentration scale where inhibition reaches its midpoint. One may read the Ki as a dissociation constant, usually derived from enzyme kinetics or from competition with a known ligand. `CC(C)(C)[C@H](NC(=O)c1ccc(N)c(Cl)c1)C(=O)N1CCC[C@H]1C(=O)N[C@H](C=O)CC(=O)O` [VRT-043198 (2b), reference compound]: the IC50 at caspase 4 was 14.5 nM; on caspase 1 [1], 0.204 nM; at caspase 8 [2], 3.3 nM; at caspase 1 [4], 11.5 nM; at caspase 9, 5.07 nM. Also, the Ki on caspase 6 is 560 nM; on caspase 8 [5] it was 100 nM. In addition, the “free fraction in protein binding assay” value in data set [3] and in data set [7] was “significantly higher” in each case. The “aqueous stability in acidic conditions (pH 2)” value in data set [6] (pH 2, LCMS) is listed as “very stable”. Also, the “aqueous stability in neutral conditions (water, pH 7)” value in data set [6] (pH 7, LCMS) is recorded as “very stable”. For the same compound, in data set [6] (pH 8, LCMS), the “aqueous stability in basic conditions (pH 8)” value is given as “moderate”.

These data come from patent publication US9365612B2, “Caspase inhibitors” (United States of America as represented by the Secretary, …, priority 2010, dated 2016).
